In patent US20240381872A1, “SUBSTITUTED 2,3-DIHYDRO[1,3]THIAZOLO[4,5-B]PYRIDINES, SALTS THEREOF AND THEIR USE AS HERBICIDALLY ACTIVE SUBSTANCES” (BAYER AKTIENGESELLSCHAFT, priority 2021, published 2024):

Key:
Type in all cases: in vivo
Zea mays (ZEAMX) [1] = experiment: Pre-emergence effects on crop plants, section D (Table D1); settings: application rate 320 g/ha; visual grading after ca. 3 weeks
Description: (§1) Seeds of mono- and dicotyledonous weed plants and crop plants were sown, in plastic or organic planting pots, in sandy loam and covered with soil. The compounds according to the invention, formulated in the form of wettable powders (WP) or as emulsifiable concentrates (EC), were applied to the surface of the covering soil as aqueous suspension or emulsion, with the addition of 0.5% of an additive, at an application rate of 600 l of water/ha (converted).
(§2) Following treatment, the pots were placed in a greenhouse and kept under optimum growth conditions for the test plants. The visual grading of the damage to the test plants was carried out after ca. 3 weeks in comparison to untreated controls (herbicidal effect in percent (%): 100% effect=plants have died off, 0% effect=as control plants).
(§3) Tables D1 to D5 below show the effects of various compounds of the general formula (I) according to Table 1 on various crop plants and an application rate corresponding to 320 g/ha or below obtained by the experimental procedure mentioned above in Biological Examples, Section C.

[2] = test system: Triticum aestivum (TRZAS); experiment: Pre-emergence effects on crop plants, section D (Table D2); settings: application rate 320 g/ha; visual grading after ca. 3 weeks
Description: as §1, §2, §3

Glycine max (GLXMA) [3] = experiment: Pre-emergence effects on crop plants, section D (Table D4); settings: application rate 80 g/ha; visual grading after ca. 3 weeks
Description: as §1, §2, §3

Brassica napus (BRSNW) [4] = experiment: Pre-emergence effects on crop plants, section D (Table D5); settings: application rate 80 g/ha; visual grading after ca. 3 weeks
Description: as §1, §2, §3

Zea mays (ZEAMX) [5] = experiment: Post-emergence effects on crop plants, section F (Table F1); settings: Zea mays, 504 h, application rate 320 g/ha, read-out: post-emergence activity against ZEAMX in %
Description: (§4) Seeds of mono- and dicotyledonous weed plants and crop plants were sown, in plastic or organic planting pots, in sandy loam, covered with soil and grown in a greenhouse under controlled growth conditions. 2 to 3 weeks after sowing, the test plants were sprayed in the single-leaf stage. The compounds according to the invention, formulated in form of wettable powders (WP) or as emulsifiable concentrates (EC), were sprayed onto the green plant parts as aqueous suspension or emulsion, with the addition of 0.5% of an additive, at an application rate of 600 l of water/ha (converted). The test plants were placed in the greenhouse for ca. 3 weeks under optimum growth conditions, and then the effect of the preparations was assessed visually in comparison with untreated controls (herbicidal effect in percent (%): 100% effect=plants have died off, 0% effect=as control plants). Tables F1 to F4 below show the effects of selected compounds of the general formula (I) according to Table 1 on various crop plants and an application rate corresponding to 320 g/ha or below obtained by the experimental procedure mentioned above.

[6] = test system: Triticum aestivum (TRZAS); experiment: Post-emergence effects on crop plants, section F (Table F2); settings: Triticum aestivum, 504 h, application rate 320 g/ha, read-out: post-emergence activity against TRZAS in %
Description: as §4

Glycine max (GLXMA) [7] = experiment: Post-emergence effects on crop plants, section F (Table F4); settings: Glycine max, 504 h, application rate 320 g/ha, read-out: post-emergence activity against GLXMA in %
Description: as §4

Brassica napus (BRSNW) [8] = experiment: Post-emergence effects on crop plants, section F (Table F5); settings: Brassica napus, 504 h, application rate 320 g/ha, read-out: post-emergence activity against BRSNW in %
Description: as §4

[9] = test system: Abutilon theophrasti (ABUTH); experiment: Herbicidal pre-emergence action, section A (Table A1); settings: visual grading after ca. 3 weeks vs untreated controls
Description: Seeds of mono- and dicotyledonous weed plants were sown in plastic pots (double sowings with one species of mono- and one species of dicotyledonous weed plants per pot), in sandy loam, and covered with soil. The compounds according to the invention, formulated in the form of wettable powders (WP) or as emulsifiable concentrates (EC), were applied to the surface of the covering soil as aqueous suspension or emulsion, with the addition of 0.5% of an additive, at an application rate of 600 l of water per hectare (converted). Following treatment, the pots were placed in a greenhouse and kept under optimum growth conditions for the test plants. The visual grading of the damage to the test plants was carried out after ca. 3 weeks in comparison to untreated controls (herbicidal effect in percent (%): 100% effect=plants have died off, 0% effect=as control plants).

[10] = test system: Alopecurus myosuroides (ALOMY); experiment: Herbicidal pre-emergence action, section A (Table A2); settings: application rate 1280 g/ha; visual grading after ca. 3 weeks vs untreated controls
In short: (§5)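 Visual scoring at approximately 3 weeks, relative to untreated pots, gave percent effect after compounds in WP or EC form were sprayed onto covering soil of sown seeds (sandy loam) in water with 0.5% additive at 600 l/ha, then kept in greenhouse.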

[11] = test system: Echinochloa crus-galli (ECHCG); experiment: Herbicidal pre-emergence action, section A (Table A3); settings: visual grading after ca. 3 weeks vs untreated controls
In short: as §5

Kochia scoparia (KCHSC) [12] = experiment: Herbicidal pre-emergence action, section A (Table A4); settings: visual grading after ca. 3 weeks vs untreated controls
In short: as §5

Lolium rigidum (LOLRI) [13] = experiment: Herbicidal pre-emergence action, section A (Table A5); settings: visual grading after ca. 3 weeks vs untreated controls
In short: as §5

[14] = test system: Matricaria inodora (MATIN); experiment: Herbicidal pre-emergence action, section A (Table A6); settings: visual grading after ca. 3 weeks vs untreated controls
In short: as §5

Poa annua (POAAN) [15] = experiment: Herbicidal pre-emergence action, section A (Table A7); settings: application rate 320 g/ha; visual grading after ca. 3 weeks vs untreated controls
In short: as §5

Setaria viridis (SETVI) [16] = experiment: Herbicidal pre-emergence action, section A (Table A8); settings: application rate 1280 g/ha
In short: as §5

Stellaria media (STEME) [17] = experiment: Herbicidal pre-emergence action, section A (Table A9); settings: application rate 320 g/ha
In short: as §5

Veronica persica (VERPE) = experiment: Herbicidal pre-emergence action, section A (Table A10); settings: application rate 1280 g/ha
In short: as §5

[18] = test system: Amaranthus retroflexus (AMARE); experiment: Herbicidal pre-emergence action, section A (Table A11); settings: application rate 320 g/ha
In short: as §5

[19] = test system: Digitaria sanguinalis (DIGSA); experiment: Herbicidal pre-emergence action, section A (Table A12); settings: application rate 320 g/ha
In short: as §5

[20] = test system: Echinochloa crus-galli (ECHCG); experiment: Herbicidal post-emergence action, section B (Table B3); settings: application rate 1280 g/ha, rated visually after about 3 weeks
In short: (§6)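 Activity was scored visually as percent of untreated controls about 3 weeks after spraying, where 100% meant dead plants and 0% meant no difference. Plants were treated at the one-leaf stage with WP or EC formulations in water containing 0.5% additive, applied at 600 liters per hectare.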

[21] = test system: Matricaria inodora (MATIN); experiment: Herbicidal post-emergence action, section B (Table B6); settings: application rate 1280 g/ha; visual rating about 3 weeks after treatment vs untreated controls
Experimental: (§7) Seeds of mono- and dicotyledonous weed plants were placed in plastic pots in sandy loam soil (doubly sown with in each case one species of mono- or dicotyledonous weed plants per pot), covered with soil and cultivated in a greenhouse under controlled growth conditions. 2 to 3 weeks after sowing, the test plants were treated at the one-leaf stage. The compounds of the invention, formulated in the form of wettable powders (WP) or as emulsion concentrates (EC), were applied onto the green parts of the plants as aqueous suspension or emulsion with addition of 0.5% additive at a water application rate of 600 liters per hectare (converted). After the test plants had been kept in the greenhouse under optimum growth conditions for about 3 weeks, the activity of the preparations was rated visually in comparison to untreated controls. For example, 100% activity=the plants have died, 0% activity=like control plants.

Poa annua (POAAN) [22] = experiment: Herbicidal post-emergence action, section B (Table B7); settings: visual rating about 3 weeks after treatment vs untreated controls
In short: as §6

Setaria viridis (SETVI) [23] = experiment: Herbicidal post-emergence action, section B (Table B8); settings: application rate 1280 g/ha; visual rating about 3 weeks after treatment vs untreated controls
In short: as §6

[24] = test system: Abutilon theophrasti (ABUTH); experiment: Herbicidal post-emergence action, section B (Table B1); settings: application rate 320 g/ha, rated visually after about 3 weeks
In short: as §6

Kochia scoparia (KCHSC) [25] = experiment: Herbicidal post-emergence action, section B (Table B4); settings: application rate 1280 g/ha; visual rating about 3 weeks after treatment vs untreated controls
In short: as §6

Lolium rigidum (LOLRI) [26] = experiment: Herbicidal post-emergence action, section B (Table B5); settings: application rate 1280 g/ha; visual rating about 3 weeks after treatment vs untreated controls
Experimental: as §7

Stellaria media (STEME) [27] = experiment: Herbicidal post-emergence action, section B (Table B9); settings: application rate 320 g/ha; visual rating about 3 weeks after treatment vs untreated controls
In short: as §6

[28] = test system: Amaranthus retroflexus (AMARE); experiment: Herbicidal post-emergence action, section B (Table B11); settings: application rate 1280 g/ha; visual rating about 3 weeks after treatment vs untreated controls
In short: as §6

SMILES: CCS(=O)(=O)N1CS(=O)(=O)c2cc(C)c(-c3ccccc3F)nc21 [Example I-146, 3-(ethylsulfonyl)-5-(2-fluorophenyl)-6-methyl-2,3-dihydro[1,3]thiazolo[4,5-b]pyridine 1,1-dioxide]
- pre-emergence activity against ZEAMX in % (crop plant damage) (Zea mays (ZEAMX) [1]): 0%
- pre-emergence activity against TRZAS in % (crop plant damage) [2]: 0%
- pre-emergence activity against GLXMA in % (crop plant damage) (Glycine max (GLXMA) [3]): 0%
- pre-emergence activity against BRSNW in % (crop plant damage) (Brassica napus (BRSNW) [4]): 0%
- percent crop plant damage (phytotoxicity) on Zea mays, post-emergence at 320 g/ha (Zea mays (ZEAMX) [5]): 0%
- percent crop plant damage (wheat, post-emergence) at 320 g/ha [6]: 0%
- percent crop plant damage at 320 g/ha (Glycine max (GLXMA) [7]): 0%
- crop plant damage (phytotoxicity) in % at 320 g/ha (Brassica napus (BRSNW) [8]): 0%

SMILES: COC(=O)CS(=O)(=O)N1CSc2cc(C)c(-c3ccccc3F)nc21 [Example I-121]
- pre-emergence activity against ABUTH in % ([9]; application rate 1280 g/ha): 90%
- pre-emergence activity against ALOMY in % [10]: 90%
- pre-emergence activity against ECHCG in % ([11]; application rate 320 g/ha): 100%
- pre-emergence activity against KCHSC in % (Kochia scoparia (KCHSC) [12]; application rate 320 g/ha): 90%
- pre-emergence activity against LOLRI in % (Lolium rigidum (LOLRI) [13]; application rate 320 g/ha): 100%
- pre-emergence activity against MATIN in % ([14]; application rate 320 g/ha): 90%
- pre-emergence activity against POAAN in % (Poa annua (POAAN) [15]): 100%
- pre-emergence activity against SETVI in % (Setaria viridis (SETVI) [16]): 100%
- pre-emergence activity against STEME in % (Stellaria media (STEME) [17]): 90%
- pre-emergence activity against VERPE in % (Veronica persica (VERPE)): 90%
- pre-emergence activity against AMARE in % [18]: 90%
- pre-emergence activity against DIGSA in % [19]: 100%
- post-emergence activity against ECHCG in % [20]: 90%
- post-emergence activity against MATIN in % [21]: 90%
- post-emergence activity against POAAN in % (Poa annua (POAAN) [22]; application rate 320 g/ha): 90%
- post-emergence activity against SETVI in % (Setaria viridis (SETVI) [23]): 90%

SMILES: Cc1cc2c(nc1-c1cccc(F)c1F)N(C(=O)C1(C)CC(Cl)=NO1)CS2 (stereo not shown) [Example I-152]
- pre-emergence activity against ABUTH in % ([9]; application rate 320 g/ha): 90%
- pre-emergence activity against ALOMY in % [10]: 90%
- pre-emergence activity against ECHCG in % ([11]; application rate 1280 g/ha): 90%
- pre-emergence activity against KCHSC in % (Kochia scoparia (KCHSC) [12]; application rate 1280 g/ha): 100%
- pre-emergence activity against LOLRI in % (Lolium rigidum (LOLRI) [13]; application rate 1280 g/ha): 100%
- pre-emergence activity against MATIN in % ([14]; application rate 1280 g/ha): 90%
- pre-emergence activity against POAAN in % (Poa annua (POAAN) [15]): 100%
- pre-emergence activity against SETVI in % (Setaria viridis (SETVI) [16]): 100%
- pre-emergence activity against STEME in % (Stellaria media (STEME) [17]): 90%
- pre-emergence activity against VERPE in % (Veronica persica (VERPE)): 90%
- pre-emergence activity against AMARE in % [18]: 100%
- pre-emergence activity against DIGSA in % [19]: 90%
- post-emergence activity against ABUTH in % [24]: 90%
- post-emergence activity against KCHSC in % (Kochia scoparia (KCHSC) [25]): 90%
- post-emergence activity against LOLRI in % (Lolium rigidum (LOLRI) [26]): 90%
- post-emergence activity against POAAN in % (Poa annua (POAAN) [22]; application rate 1280 g/ha): 90%
- post-emergence activity against SETVI in % (Setaria viridis (SETVI) [23]): 90%
- post-emergence activity against STEME in % (Stellaria media (STEME) [27]): 90%
- post-emergence activity against AMARE in % [28]: 100%
